Results on 92 compounds are retold here after ChEMBL document CHEMBL3507680, “University of Dundee, Gates Library screen for HepG2 cell viability”.

This data set is described as follows: Human HepG2 cell viability assay in 384 well format. Type of data set: toxicity, cell-based. Further details: dose 125 nL, time 70.5 hour; cytotoxicity at 70.5 h: concentration not given beside the values. Conditions: HepG2 cells, read-out: Inhibition.

`COc1ccc(CN(C)c2ncc(S(N)(=O)=O)s2)c(OC)c1`: the cytotoxicity at 70.5 h is -4.13%.

Turning to `CSC(CNS(C)(=O)=O)c1cccc(Cl)c1` (configuration not stated), the cytotoxicity at 70.5 h is 24%.

`CSC(CNS(N)(=O)=O)c1cccc(Cl)c1` (configuration not stated): the cytotoxicity at 70.5 h is -1.44%.

Regarding `CN(CCn1cccn1)S(=O)(=O)c1cccc(Cl)c1C#N`, the cytotoxicity at 70.5 h is -7.08%.

On to `CCCn1nc(-c2nc(COC)no2)ccc1=O`, for which the cytotoxicity at 70.5 h is -6.41%.

Turning to `CC(C)(CNc1ccc2ccc(F)cc2n1)NS(C)(=O)=O`, the cytotoxicity at 70.5 h is -7.19%.

Turning to `Cc1noc(COCC(=O)Nc2cc(C)c(Br)cn2)n1`, the cytotoxicity at 70.5 h was determined as 4.04%.

As to `O=S(=O)(Cc1cccc2cccnc12)NC(CO)c1ccco1` (configuration not stated), the cytotoxicity at 70.5 h is -9.35%.

For the compound `O=S(=O)(Cc1ccccc1F)NC(CO)c1ccco1` (configuration not stated), the cytotoxicity at 70.5 h turned out to be 18.8%.

In the case of `COc1ncc(NCc2csc(-c3ccco3)n2)cc1C(N)=O`, the cytotoxicity at 70.5 h was -11%.

Consider `COCC1CN(C(=O)Nc2cc(Cl)ccc2F)CCO1` (configuration not stated), for which the cytotoxicity at 70.5 h is -8.58%.

Take `Cc1cccc(OCc2nnc(SCC3CCCN(C)C3)o2)c1` (configuration not stated): the cytotoxicity at 70.5 h was -5.28%.

As for `CCC(C(=O)N1CCCN(CCN(C)C)CC1)N1CCCC1=O` (configuration not stated), the cytotoxicity at 70.5 h amounted to 0.544%.

`Cc1csc(C2(NCC(O)COC(C)C)CCCC2)n1` (configuration not stated): the cytotoxicity at 70.5 h is -11.4%.

In the case of `CC1CN(C)CCN1C(=O)NCCCn1ccnc1` (configuration not stated), the cytotoxicity at 70.5 h is -1.11%.

For `Cn1cc(C(C)(O)CNc2ccccn2)cn1` (configuration not stated), the cytotoxicity at 70.5 h stood at 2.38%.

Turning to `COCC(=O)NCCC(=O)N1CCN(S(=O)(=O)c2ccc(Br)cc2)CC1`, the cytotoxicity at 70.5 h was 13.5%.

As for `COCC(=O)NCCC(=O)N1CCN(S(=O)(=O)c2cccc(Br)c2)CC1`, the cytotoxicity at 70.5 h was -2.7%.

Regarding `N#Cc1cc(F)c(NCc2ccc(F)cc2)c(F)c1`, the cytotoxicity at 70.5 h came to 15.5%.

Regarding `CCN(CC)C(=O)CNS(=O)(=O)c1cc(Br)ccc1F`, the cytotoxicity at 70.5 h is -5.2%.

Regarding `Cc1c(C(C)NC(=O)Nc2ccccc2F)cnn1C` (configuration not stated), the cytotoxicity at 70.5 h was -5.46%.

Turning to `Cc1cnc(C(=O)N2CC[C@@H]3CN(c4ncccn4)CCO[C@@H]3C2)cn1`, the cytotoxicity at 70.5 h is -4.8%.

For the compound `O=C(c1ccco1)N1CCc2ncc(CN3CCOCC3)n2CC1`, the cytotoxicity at 70.5 h is 18.7%.

Regarding `COc1ccc(CNC(=O)c2nc3c(s2)CCN(C(C)=O)CC3)cc1`, the cytotoxicity at 70.5 h is -11.1%.

As to `Cc1ccccc1C(=O)N1CCC2(CC1)CC(c1cnn(C)c1)CO2` (configuration not stated), the cytotoxicity at 70.5 h was -11.9%.

As to `Cn1cc(C2COC3(CCN(C(=O)c4cnccn4)CC3)C2)cn1` (configuration not stated), the cytotoxicity at 70.5 h is -12.7%.

On to `Cn1cc(C2COC3(CCN(C(=O)c4cccc(O)c4)CC3)C2)cn1` (configuration not stated), for which the cytotoxicity at 70.5 h was -11.7%.

With `O=S(=O)(c1ccccc1)N1CCC2(CCCN2Cc2ccccc2Cl)C1` (configuration not stated), the cytotoxicity at 70.5 h stood at 22.5%.

For `Cc1ccc(CN2CCn3c(CNS(C)(=O)=O)nnc3C2)s1`, the cytotoxicity at 70.5 h was determined as 22.6%.

For `CS(=O)(=O)NCc1nnc2n1CCN(Cc1ccncc1)C2`, the cytotoxicity at 70.5 h was 20.1%.

As for `O=S(=O)(c1ccccc1)N1CCC2(CCCN2Cc2ccc(Cl)cc2)C1` (configuration not stated), the cytotoxicity at 70.5 h was -7.11%.

For the compound `CS(=O)(=O)NCc1nnc2n1CCN(Cc1ccccn1)C2`, the cytotoxicity at 70.5 h was -9%.

For the compound `Cn1cc(C[C@H]2[C@H](O)CCN2Cc2ccc3c(c2)OCO3)cn1`, the cytotoxicity at 70.5 h came to 6.92%.

As for `O=C(Nc1ccccc1)[C@H]1C[C@@H]2CN(Cc3cccnc3)C[C@H]1O2`, the cytotoxicity at 70.5 h is -5.98%.

As for `O=C(c1ccnnc1)N1CCN2C[C@H](OCc3ccccn3)C[C@H]2C1`, the cytotoxicity at 70.5 h was -4.04%.

On to `c1cncc(CN2CCCC3(COCCN(c4nccs4)C3)C2)c1` (configuration not stated), for which the cytotoxicity at 70.5 h was -5.78%.

Turning to `COc1ccc(CN2C[C@H]3C[C@H](C(=O)Nc4cccnc4)[C@@H](C2)O3)cc1`, the cytotoxicity at 70.5 h was -3.51%.

Take `Cn1cc(CN2CC[C@@H](O)[C@@H]2Cc2ccccc2)cn1`: the cytotoxicity at 70.5 h is -7.36%.

With `Cc1ccc(C(=O)N2CC[C@@]3(C[C@@H](NS(C)(=O)=O)CCO3)C2)s1`, the cytotoxicity at 70.5 h worked out at 4.89%.

Consider `Cc1nc(C(=O)N2CC[C@@]3(C[C@H](NS(C)(=O)=O)CCO3)C2)cs1`, for which the cytotoxicity at 70.5 h was -7.15%.

Take `CC(C)CN1C(=O)CO[C@@H]2CN(C(=O)C3CCOC3)C[C@H]21` (some centres not stated): the cytotoxicity at 70.5 h came out at 39.9%.

Regarding `COCCN1C(=O)[C@]2(CC[C@@H]3CN(S(=O)(=O)CC(C)C)C[C@@H]32)N=C1C`, the cytotoxicity at 70.5 h came out at 13.1%.

`CCCNC(=O)c1ncn2c1CN(CC(C)C)S(=O)(=O)c1ccccc1-2`: the cytotoxicity at 70.5 h was 13.4%.

`CS(=O)(=O)N[C@@H]1CCN(Cc2cccnc2)[C@H]1Cc1cccnc1`: the cytotoxicity at 70.5 h is 13.6%.

As to `CC1=N[C@@]2(CC[C@@H]3CN(S(=O)(=O)CC(C)C)C[C@@H]32)C(=O)N1C`, the cytotoxicity at 70.5 h is -10.5%.

As to `CCN1Cc2c(C(=O)NC)ncn2-c2ccccc2S1(=O)=O`, the cytotoxicity at 70.5 h was -6.74%.

With `Cc1nnc([C@@H]2CC[C@@H]3[C@@H](CCN3S(=O)(=O)C3CC3)O2)o1`, the cytotoxicity at 70.5 h is -14%.

On to `CC(C)CN1Cc2c(C(=O)NC3CC3)ncn2-c2ccccc2S1(=O)=O`, for which the cytotoxicity at 70.5 h is -15.8%.

In the case of `Cc1nc(COC[C@H]2CC[C@H]3[C@H](CCN3C(N)=O)O2)cs1`, the cytotoxicity at 70.5 h is -1.77%.

As to `CC(C)CN1C(=O)CO[C@@H]2CN(C(=O)C3CCOCC3)C[C@H]21`, the cytotoxicity at 70.5 h is -4.41%.

As to `COc1ccc(CN2Cc3cn(C)nc3C(COCC3CC3)C2)cc1` (configuration not stated), the cytotoxicity at 70.5 h was -4.4%.

Consider `Cn1cc(CN2CCCC3(CCN(C(=O)c4ccoc4)C3)C2)cn1` (configuration not stated), for which the cytotoxicity at 70.5 h was -11%.

Regarding `Cc1cccc(C(=O)N2CCn3c(CN4CCN(C)CC4)cnc3C2)n1`, the cytotoxicity at 70.5 h is -7.95%.

Consider `COCC(=O)N1CCC2(CCCN(Cc3cnn(C)c3)C2)C1` (configuration not stated), for which the cytotoxicity at 70.5 h was -3.28%.

Regarding `O=C(CC1CC1)N1Cc2nccn2CC(CN2CCCC2)C1` (configuration not stated), the cytotoxicity at 70.5 h amounted to 16.9%.

As to `COc1ccc(C2CC(=O)NCc3nc4ccccn4c32)cn1` (configuration not stated), the cytotoxicity at 70.5 h was -1.02%.

Take `Cc1occc1C(=O)N1CCC2(CC1)CC(OCc1ccccn1)CO2` (configuration not stated): the cytotoxicity at 70.5 h was found to be 11.9%.

For `Cc1nnc(N2CC[C@H]3C[C@@H](C(=O)N4CCCC4)O[C@H]3C2)s1`, the cytotoxicity at 70.5 h came to 12.6%.

For the compound `Cc1cc(C(=O)N2CC[C@]3(C[C@@H](OCc4ccccn4)CO3)C2)c(C)o1`, the cytotoxicity at 70.5 h worked out at 17.1%.

Take `Cc1cc(C(=O)N2CCn3cc(CN4CCOCC4)nc3C2)no1`: the cytotoxicity at 70.5 h was -7.09%.

Turning to `O=C(NC1CC1)N1CCc2ncc(CN3CCOCC3)n2CC1`, the cytotoxicity at 70.5 h was -16%.

Regarding `O=C(C1CCOCC1)N1CCc2ncc(CN3CCOCC3)n2CC1`, the cytotoxicity at 70.5 h is -11.5%.

As to `Cc1nnc(N2CC[C@H]3C[C@H](C(=O)N(C)C)O[C@@H]3C2)s1`, the cytotoxicity at 70.5 h is -7.89%.

As to `CNC(=O)[C@H]1C[C@@H]2CCN(c3nnc(C)s3)C[C@@H]2O1`, the cytotoxicity at 70.5 h was -8.39%.

As for `Cc1occc1C(=O)N1CCC[C@]2(C[C@@H](OCc3ccccn3)CO2)C1`, the cytotoxicity at 70.5 h was -9.42%.

On to `CS(=O)(=O)NCc1nnc2n1CCN(Cc1cccs1)CC2`, for which the cytotoxicity at 70.5 h was -4.32%.

For `O=C(NC1CCCCC1)N1CCc2onc(COc3cccnc3)c2C1`, the cytotoxicity at 70.5 h is -6.55%.

With `O=C(c1cccs1)N1CCCC2(COCCN(c3cccnc3)C2)C1` (configuration not stated), the cytotoxicity at 70.5 h is -6.3%.

For the compound `O=C(c1ccc[nH]1)N1CCc2onc(COc3cccnc3)c2C1`, the cytotoxicity at 70.5 h was -4.03%.

Take `Cc1ccccc1CN1C[C@@H](C(=O)N2CCCCO2)C[C@H]2OCC[C@H]21`: the cytotoxicity at 70.5 h is -7.46%.

Consider `CS(=O)(=O)N[C@H]1CCO[C@]2(CCN(C(=O)c3ccccn3)C2)C1`, for which the cytotoxicity at 70.5 h is -3.91%.

With `Cc1ccc(C(=O)N2C[C@@H]3OCCN(C)[C@@H]3C2)cn1`, the cytotoxicity at 70.5 h is -2.77%.

As to `CNC(=O)[C@H]1C[C@@H]2CCN(Cc3nccs3)C[C@H]2O1`, the cytotoxicity at 70.5 h was -6.34%.

As to `Fc1cccc(CNCC2OCCc3cn(CC4CCOCC4)nc32)c1` (configuration not stated), the cytotoxicity at 70.5 h was -5.44%.

Take `O=C1CO[C@@H]2CN(CC3CC3)C[C@H]2N1Cc1cccc(F)c1`: the cytotoxicity at 70.5 h was found to be 14.4%.

For `COc1ccc(CN2CCCn3cnc(COC(C)C)c3C2)cc1`, the cytotoxicity at 70.5 h was 23.2%.

As to `CN1CC(=O)N(c2ccccc2)CC12CCN(S(C)(=O)=O)C2` (configuration not stated), the cytotoxicity at 70.5 h amounted to 20.4%.

With `Cc1nc(CN2C[C@@H]3CN(C(=O)c4ccco4)C[C@@H]3C2=O)cs1`, the cytotoxicity at 70.5 h was -3.99%.

Take `O=C(NCc1ccccn1)[C@H]1COC[C@H]2CN(C3CCCC3)C[C@H]21`: the cytotoxicity at 70.5 h was 40.2%.

As for `CN(C)C(=O)[C@H]1C[C@H]2OCC[C@H]2N(Cc2ccc3ccccc3n2)C1`, the cytotoxicity at 70.5 h is 17.2%.

Consider `c1cnc(N2CCOCC3(CCCN(Cc4cccs4)C3)C2)nc1` (configuration not stated), for which the cytotoxicity at 70.5 h worked out at 19.9%.

In the case of `c1cncc(N2CCOCC3(CN(Cc4cccs4)CCO3)C2)c1` (configuration not stated), the cytotoxicity at 70.5 h came out at 19.2%.

Turning to `Cn1cc(CN2CCCC3(COCCN(c4cccnc4)C3)C2)cn1` (configuration not stated), the cytotoxicity at 70.5 h was -6.27%.

`CC(C)CCN1C[C@H]2C[C@H](C(=O)Nc3cccnc3)[C@@H](C1)O2`: the cytotoxicity at 70.5 h is -6.02%.

For `O=C([C@H]1C[C@H]2OCC[C@H]2N(Cc2ccccc2F)C1)N1CCCCO1`, the cytotoxicity at 70.5 h is -7.79%.

As to `O=S(=O)(c1ccccc1)N1CCC2(CCCN2Cc2cccnc2)C1` (configuration not stated), the cytotoxicity at 70.5 h stood at 10.9%.

With `Cc1noc(C)c1CN1Cc2cn(C)nc2C(COCC2CC2)C1` (configuration not stated), the cytotoxicity at 70.5 h amounted to 14.4%.

For the compound `CS(=O)(=O)N[C@@H]1CCN(Cc2cccnc2)[C@H]1Cc1ccccc1`, the cytotoxicity at 70.5 h is -11.7%.

As for `O=C(Nc1cccnc1)[C@H]1C[C@@H]2CCN(Cc3nccs3)C[C@@H]2O1`, the cytotoxicity at 70.5 h was -15.1%.

`Cc1ncccc1NC(=O)[C@@H]1C[C@@H]2CCN(Cc3cccs3)C[C@H]2O1`: the cytotoxicity at 70.5 h is -12.3%.

On to `CN1CCN(C2COC3(CCN(Cc4ccc(F)cc4)CC3)C2)CC1` (configuration not stated), for which the cytotoxicity at 70.5 h was -11.8%.

Consider `Cn1cc(CN2CCCC3(CCN(C(=O)c4ccccn4)C3)C2)cn1` (configuration not stated), for which the cytotoxicity at 70.5 h was -12%.
